{"source": "paper PMC9894594", "about": "“Progressive Acceleration of Insulin Exposure Over 7 Days of Infusion Set Wear” (Diabetes Technology & Therapeutics, 2023)", "assay_type_in_all_cases": "in vivo, human (participants with type 1 diabetes mellitus)", "key": {"[1]": {"assay": "Adverse events during the crossover clamp study", "conditions": "both IIS types", "text": "(§1) We performed a prospectively enrolled randomized sequence two-way crossover study of the investigational CBX (Capillary Biomedical, Inc., Irvine, CA) and a commercial angled Teflon (MiniMed™ Silhouette™; Medtronic Diabetes Care, Northridge, CA; indicated for 3-day use) IIS for two weeklong home use periods with four in-patient euglycemic clamp sessions during each of the 7-day periods. Between the two periods, there was a wash out of 14 days (Supplementary Fig. S1).\nWCG IRB approved the protocol and all associated documents used by participants before initiation of the study (Study No. 1283383) and during the study were registered in clinicaltrials.gov (NCT04398030). Participants aged 18–70 years, diagnosed with type 1 diabetes mellitus, and using rapid-acting insulin analog delivered through a Medtronic MiniMed insulin pump (model 530 or higher; Medtronic Diabetes Care) for at least 6 months were enrolled."}, "[2]": {"assay": "Euglycemic clamp pharmacodynamics (glucose infusion rate) after insulin lispro pump bolus", "set-up": "t50% (GIR, early) (time to reach 50% GIRmax before peak) / t50% (GIR, late) (time to reach 50% GIRmax after peak): unit: min", "conditions": "0.15 U/kg SC bolus by pump, euglycemic clamp 300 min, median (25th–75th)", "text": "as §1\n(§2) Euglycemic clamp experiments were performed at AMCR Institute (in Escondido, CA.) on days 0, 3, 5, and 7 in each treatment period (eight clamps per participant). Participants were admitted to AMCR the evening before the clamp study and glucose was stabilized overnight with intravenous (IV) insulin or glucose as needed. Personal pumps were set to 0.1 U/h overnight and throughout the clamp experiment. Once glucose was stable (95 ± 15 mg/dL) in the morning, IV insulin was stopped 20 min before administering a bolus of 0.15 U/kg of insulin lispro (Eli Lilly, Indianapolis, IN) by pump. Glucose was clamped at 95 ± 15 mg/dL for 300 min or terminated early if runaway hyperglycemia occurred.\n(§3) PK parameters (area under the insulin concentration curve [AUC] over the first 60 or 300 min, respectively; time to maximum insulin concentration [tmax]; maximum insulin concentration [Cmax]; time to half-maximum insulin concentration, early and late [t50%], and mean residence time [MRT]) were tested for treatment effects. […] Estimated means were then back transformed and the ratio between treatments/days (equality means a ratio of 1) tested for significance using mixed model for repeated measures (two-sided, α = 0.05). For simplicity reasons, all data are presented as median (25th–75th percentiles) or mean ± standard deviation."}, "[3]": {"assay": "Insulin lispro pharmacokinetics after pump bolus during euglycemic clamp over 7 days of infusion set wear", "conditions": "CBX group", "text": "as §1, §2\nPer participant and clamp, 30 plasma samples were collected in regular intervals and stored at −70°C. Samples were analyzed elsewhere (Northern Lights Mercodia Lispro ELISA, Mercodia AB, Uppsala, Sweden; lowest limit of quantification (LLOQ) = 1.0 mU/L, 94% accuracy[7]). Owing to the small sample size and the intrinsically greater variability in pharmacodynamic measures, the PK results are the only results detailed in this report.\nas §3"}, "[4]": {"conditions": "day 0 of IIS wear, CBX IIS, n = 6"}, "[5]": {"conditions": "day 0 of IIS wear, Control IIS, n = 6"}, "[6]": {"conditions": "day 3 of IIS wear, CBX IIS, n = 6"}, "[7]": {"conditions": "day 3 of IIS wear, Control IIS, n = 6"}, "[8]": {"conditions": "day 5 of IIS wear, CBX IIS, n = 6"}, "[9]": {"conditions": "day 5 of IIS wear, Control IIS, n = 6"}, "[10]": {"conditions": "day 7 of IIS wear, CBX IIS, n = 5"}, "[11]": {"conditions": "day 7 of IIS wear, Control IIS, n = 5"}}}
{"substance": "insulin lispro", "values": [{"measurement": "severe or serious adverse events", "setting": "[1]", "value": "No severe or serious adverse events"}, {"measurement": "AUC0–300(GIR) (area under the GIR curve from 0 to 300 min)", "setting": "[2]; [4]", "value": "1205 (642.1–1219) mg/kg"}, {"measurement": "GIRmax (maximum glucose infusion rate)", "setting": "[2]; [4]", "value": "8.4 (4.5–9.1) mg/(kg·min)"}, {"measurement": "Onset of action", "setting": "[2]; [4]", "value": "28.9 (21.4–39.0) min"}, {"measurement": "t50% (GIR, early) (time to reach 50% GIRmax before peak)", "setting": "[2]; [4]", "value": "48.7 (25.7–63.5)"}, {"measurement": "t50% (GIR, late) (time to reach 50% GIRmax after peak)", "setting": "[2]; [4]", "value": "187.4 (160.4–234.3)"}, {"measurement": "tmax(GIR) (time to reach GIRmax)", "setting": "[2]; [4]", "value": "140.0 (80.0–170.0) min"}, {"measurement": "AUC0–300(GIR) (area under the GIR curve from 0 to 300 min)", "setting": "[2]; [5]", "value": "1330 (790.6–1539) mg/kg"}, {"measurement": "GIRmax (maximum glucose infusion rate)", "setting": "[2]; [5]", "value": "10.2 (7.7–11.7) mg/(kg·min)"}, {"measurement": "Onset of action", "setting": "[2]; [5]", "value": "76.1 (56.6–106.4) min"}, {"measurement": "t50% (GIR, early) (time to reach 50% GIRmax before peak)", "setting": "[2]; [5]", "value": "67.6 (43.0–93.5)"}, {"measurement": "t50% (GIR, late) (time to reach 50% GIRmax after peak)", "setting": "[2]; [5]", "value": "182.6 (164.3–247.3)"}, {"measurement": "tmax(GIR) (time to reach GIRmax)", "setting": "[2]; [5]", "value": "145.0 (90.0–190.0) min"}, {"measurement": "AUC0–300(GIR) (area under the GIR curve from 0 to 300 min)", "setting": "[2]; [6]", "value": "719.6 (652.3–864.3) mg/kg"}, {"measurement": "GIRmax (maximum glucose infusion rate)", "setting": "[2]; [6]", "value": "7.41 (5.7–9.5) mg/(kg·min)"}, {"measurement": "Onset of action", "setting": "[2]; [6]", "value": "28.2 (12.1–34.0) min"}, {"measurement": "t50% (GIR, early) (time to reach 50% GIRmax before peak)", "setting": "[2]; [6]", "value": "49.0 (37.7–95.0)"}, {"measurement": "t50% (GIR, late) (time to reach 50% GIRmax after peak)", "setting": "[2]; [6]", "value": "157.6 (97.5–179.0)"}, {"measurement": "tmax(GIR) (time to reach GIRmax)", "setting": "[2]; [6]", "value": "65.00 (60.0–120.0) min"}, {"measurement": "AUC0–300(GIR) (area under the GIR curve from 0 to 300 min)", "setting": "[2]; [7]", "value": "743.1 (585.5–1268) mg/kg"}, {"measurement": "GIRmax (maximum glucose infusion rate)", "setting": "[2]; [7]", "value": "5.2 (5.0–13.5) mg/(kg·min)"}, {"measurement": "Onset of action", "setting": "[2]; [7]", "value": "35.4 (29.0–41.4) min"}, {"measurement": "t50% (GIR, early) (time to reach 50% GIRmax before peak)", "setting": "[2]; [7]", "value": "51.3 (44.9–55.6)"}, {"measurement": "t50% (GIR, late) (time to reach 50% GIRmax after peak)", "setting": "[2]; [7]", "value": "147.8 (88.3–177.7)"}, {"measurement": "tmax(GIR) (time to reach GIRmax)", "setting": "[2]; [7]", "value": "82.0 (60.0–110.0) min"}, {"measurement": "AUC0–300(GIR) (area under the GIR curve from 0 to 300 min)", "setting": "[2]; [8]", "value": "663.5 (609.8–1332) mg/kg"}, {"measurement": "GIRmax (maximum glucose infusion rate)", "setting": "[2]; [8]", "value": "8.1 (6.5–10.9) mg/(kg·min)"}, {"measurement": "Onset of action", "setting": "[2]; [8]", "value": "21.1 (18.4–23.8) min"}, {"measurement": "t50% (GIR, early) (time to reach 50% GIRmax before peak)", "setting": "[2]; [8]", "value": "33.3 (28.7–37.0)"}, {"measurement": "t50% (GIR, late) (time to reach 50% GIRmax after peak)", "setting": "[2]; [8]", "value": "92.6 (77.1–147.0)"}, {"measurement": "tmax(GIR) (time to reach GIRmax)", "setting": "[2]; [8]", "value": "62.5 (50.0–70.0) min"}, {"measurement": "AUC0–300(GIR) (area under the GIR curve from 0 to 300 min)", "setting": "[2]; [9]", "value": "695.2 (585.4–1395) mg/kg"}, {"measurement": "GIRmax (maximum glucose infusion rate)", "setting": "[2]; [9]", "value": "9.1 (7.3–10.8) mg/(kg·min)"}, {"measurement": "Onset of action", "setting": "[2]; [9]", "value": "20.0 (16.4–23.0) min"}, {"measurement": "t50% (GIR, early) (time to reach 50% GIRmax before peak)", "setting": "[2]; [9]", "value": "38.8 (30.6–39.1)"}, {"measurement": "t50% (GIR, late) (time to reach 50% GIRmax after peak)", "setting": "[2]; [9]", "value": "106.8 (95.4–140.2)"}, {"measurement": "tmax(GIR) (time to reach GIRmax)", "setting": "[2]; [9]", "value": "59.0 (55.0–60.0) min"}, {"measurement": "AUC0–300(GIR) (area under the GIR curve from 0 to 300 min)", "setting": "[2]; [10]", "value": "883.0 (380.6–908.4) mg/kg"}, {"measurement": "GIRmax (maximum glucose infusion rate)", "setting": "[2]; [10]", "value": "10.1 (4.9–11.3) mg/(kg·min)"}, {"measurement": "Onset of action", "setting": "[2]; [10]", "value": "18.8 (16.2–27.0) min"}, {"measurement": "t50% (GIR, early) (time to reach 50% GIRmax before peak)", "setting": "[2]; [10]", "value": "32.2 (28.0–36.0)"}, {"measurement": "t50% (GIR, late) (time to reach 50% GIRmax after peak)", "setting": "[2]; [10]", "value": "107.5 (105.9–117.8)"}, {"measurement": "tmax(GIR) (time to reach GIRmax)", "setting": "[2]; [10]", "value": "55.0 (50.0–55.0) min"}, {"measurement": "AUC0–300(GIR) (area under the GIR curve from 0 to 300 min)", "setting": "[2]; [11]", "value": "687.7 (386.7–1039) mg/kg"}, {"measurement": "GIRmax (maximum glucose infusion rate)", "setting": "[2]; [11]", "value": "9.2 (6.9–11.5) mg/(kg·min)"}, {"measurement": "Onset of action", "setting": "[2]; [11]", "value": "27.5 (14.6–32.0) min"}, {"measurement": "t50% (GIR, early) (time to reach 50% GIRmax before peak)", "setting": "[2]; [11]", "value": "48.1 (23.2–48.1)"}, {"measurement": "t50% (GIR, late) (time to reach 50% GIRmax after peak)", "setting": "[2]; [11]", "value": "96.7 (87.1–109.5)"}, {"measurement": "tmax(GIR) (time to reach GIRmax)", "setting": "[2]; [11]", "value": "70.0 (60.0–70.0) min"}, {"measurement": "acceleration of median tmax by day 7 vs day 0", "setting": "[3]", "value": 61, "unit": "%"}, {"measurement": "decrease of median MRT from day 0 to day 7", "setting": "[3]", "value": 42, "unit": "%"}, {"measurement": "increase of median early exposure (AUC0–60) by day 7 vs day 0", "setting": "[3]", "value": 59, "unit": "%"}]}
